Laboratory results as given in patent US10463658B2, “Method of inhibiting FLT3 kinase” (AROG Pharmaceuticals, LLC, priority 2013, dated 2019).
pIC50: −log10 of the molar value.

Molecular target: T1, wild type FLT3 (Homo sapiens, UniProt P36888)
T1 construct: purchased Millipore
T1 sequence (P36888 27-993): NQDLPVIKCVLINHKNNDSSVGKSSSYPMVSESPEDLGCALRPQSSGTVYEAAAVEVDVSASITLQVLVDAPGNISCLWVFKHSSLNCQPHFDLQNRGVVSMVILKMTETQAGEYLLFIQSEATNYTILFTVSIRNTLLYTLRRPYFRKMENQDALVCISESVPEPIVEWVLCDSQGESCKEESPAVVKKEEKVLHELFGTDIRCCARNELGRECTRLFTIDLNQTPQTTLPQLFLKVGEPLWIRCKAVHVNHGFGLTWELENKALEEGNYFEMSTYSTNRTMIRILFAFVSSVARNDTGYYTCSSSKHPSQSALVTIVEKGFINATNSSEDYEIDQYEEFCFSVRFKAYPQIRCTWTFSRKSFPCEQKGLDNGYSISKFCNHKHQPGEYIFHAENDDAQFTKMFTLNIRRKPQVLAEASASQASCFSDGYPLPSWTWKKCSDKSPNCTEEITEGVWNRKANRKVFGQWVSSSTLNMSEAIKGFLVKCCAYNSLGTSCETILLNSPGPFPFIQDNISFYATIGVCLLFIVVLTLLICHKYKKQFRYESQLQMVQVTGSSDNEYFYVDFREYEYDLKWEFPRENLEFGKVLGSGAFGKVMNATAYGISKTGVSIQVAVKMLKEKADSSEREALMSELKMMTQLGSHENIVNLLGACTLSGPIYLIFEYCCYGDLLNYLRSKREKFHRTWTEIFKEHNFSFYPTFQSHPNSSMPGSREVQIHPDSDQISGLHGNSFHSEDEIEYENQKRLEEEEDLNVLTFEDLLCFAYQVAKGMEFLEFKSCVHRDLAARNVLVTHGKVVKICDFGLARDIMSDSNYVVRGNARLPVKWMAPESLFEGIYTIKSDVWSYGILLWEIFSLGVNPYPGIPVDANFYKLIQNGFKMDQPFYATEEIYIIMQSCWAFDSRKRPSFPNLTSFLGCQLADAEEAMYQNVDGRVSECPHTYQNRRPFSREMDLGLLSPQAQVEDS
Test: Direct enzyme phosphorylation assay (Millipore Kinase IC50 Profiler), wild type FLT3
Format: biochemical
Conditions: tosylate salt; n=2; read-out: IC50 against wild type FLT3
Method: Direct enzyme phosphorylation assay. The Millipore Kinase IC50 Profiler assay was used to screen the present invention against a panel of normal FLT3 and mutated FLT3 kinases. For assays of both kinases, the FLT3 enzyme was incubated with 8 mM of 3-(N-morpholino)propanesulfonic acid (MOPS) at a pH of 7.0, 0.2 mM Ethylenediaminetetraacetic acid (EDTA), 50 uM, a synthetic Abl peptide substrate […] (SEQ ID NO: 1), 10 mM MgAcetate and [γ-^33P-ATP]. The reaction was initiated by the addition of MgATp mix. The reaction mixture was incubated for 40 minutes at room temperature and halted by the addition of 3% phosphoric acid solution. 10 uL of the reaction solution was spotted on P30 filtermat and washed three times in 75 mM phosphoric acid for 5 minutes and then once in methanol prior to drying and scintillation counting. The scintillation values for each replicate, including positive and negative controls, were analyzed using XLFit version 5.1 to determine the IC50 values for the present invention against normal and mutated FLT3.

pIC50: 8.40
Structure (SMILES): COCCOc1ccc2c(c1)ncn2-c1ccc2cccc(N3CCC(N)CC3)c2n1 [CP-673,451]
